This is an account of results in ChEMBL document CHEMBL5528028, “Discovery of benzopyridone cyanoacetates as new type of potential broad-spectrum antibacterial candidates” (Eur J Med Chem, 2024).

Common to all, as to type: functional
The subject of experiment [1] is Klebsiella pneumoniae. In words: Antibacterial activity against Klebsiella pneumonia assessed growth inhibition by micro broth dilution method. On the technique in general: In broth dilution the organism is exposed to a series of concentrations in liquid medium.
Experiment [2] has as its system Pseudomonas aeruginosa. In words: Antibacterial activity against Pseudomonas aeruginosa assessed growth inhibition by micro broth dilution method.
Experiment [3] has as its system Acinetobacter baumannii. In words: Antibacterial activity against Acinetobacter baumannii assessed growth inhibition by micro broth dilution method.
Experiment [4] has as its system Staphylococcus aureus. In words: Antibacterial activity against methicillin-resistant Staphylococcus aureus assessed growth inhibition by micro broth dilution method.
The test system of experiment [5] is Staphylococcus aureus. In words: Antibacterial activity against Staphylococcus aureus assessed growth inhibition by micro broth dilution method.
Experiment [6] concerns Staphylococcus aureus. In words: Antibacterial activity against Staphylococcus aureus ATCC 25923 assessed growth inhibition by micro broth dilution method.
Experiment [7] has as its system Pseudomonas aeruginosa. In words: Antibacterial activity against Pseudomonas aeruginosa ATCC 27853 assessed growth inhibition by micro broth dilution method.
Experiment [8] has as its system Escherichia coli. In words: Antibacterial activity against Escherichia coli assessed growth inhibition by micro broth dilution method.
For experiment [9], the system named is Escherichia coli. In words: Antibacterial activity against Escherichia coli ATCC 25922 assessed growth inhibition by micro broth dilution method.
Experiment [10] deals with Enterococcus faecalis. In words: Antibacterial activity against Enterococcus faecalis assessed growth inhibition by micro broth dilution method.
Experiment [11] deals with Staphylococcus aureus. In words: Antibacterial activity against Staphylococcus aureus ATCC 29213 assessed growth inhibition by micro broth dilution method.

≈ marks a conversion by molar mass, not a printed value.

For orientation: MIC means the smallest concentration in the dilution series that meets the test's criterion for growth inhibition. Lower therefore signals inhibition by little substance. With `CCOC(=O)c1cn(Cc2ccc(Cl)cc2)c2cc(F)c(F)cc2c1=O`, the MIC is 32 µg/mL (≈ 84.7 µM) in experiment [1]; 256 µg/mL (≈ 678 µM) in experiment [2]; 4 µg/mL (≈ 10.6 µM) in experiment [3]; 256 µg/mL (≈ 678 µM) in experiment [4]; 64 µg/mL (≈ 169 µM) in experiment [5]; 256 µg/mL (≈ 678 µM) in experiment [6]. Besides, the MIC in experiment [7] was 256 µg/mL (≈ 678 µM); in experiment [8], 1 µg/mL (≈ 2.65 µM); in [9] it was 128 µg/mL (≈ 339 µM); in [10] it was 64 µg/mL (≈ 169 µM); in experiment [11], 256 µg/mL (≈ 678 µM).

`CCOC(=O)c1cn(CC=C(C)C)c2cc([C-](C#N)C(=O)OCC)c(F)cc2c1=O.[Na+]` (stereo not given): the MIC in [1] was 8 µg/mL; in experiment [2] it was 256 µg/mL; in experiment [3], 256 µg/mL; in experiment [4] it was 256 µg/mL; in experiment [5], 256 µg/mL; in experiment [6], 0.5 µg/mL. In addition, the MIC in experiment [7] is 8 µg/mL; in [8], 256 µg/mL; in [9], 8 µg/mL; in experiment [10] it was 256 µg/mL; in experiment [11], 8 µg/mL.

Regarding `CCOC(=O)c1cn(CC=C(C)C)c2cc(F)c(F)cc2c1=O`, the MIC was 32 µg/mL (≈ 99.6 µM) in experiment [1]; 64 µg/mL (≈ 199 µM) in experiment [2]; 256 µg/mL (≈ 797 µM) in experiment [3]; 256 µg/mL (≈ 797 µM) in experiment [4]; 128 µg/mL (≈ 398 µM) in experiment [5]; 64 µg/mL (≈ 199 µM) in [6]. Further, the MIC is 256 µg/mL (≈ 797 µM) in experiment [7]; 8 µg/mL (≈ 24.9 µM) in experiment [8]; 64 µg/mL (≈ 199 µM) in [9]; 128 µg/mL (≈ 398 µM) in experiment [10]; 128 µg/mL (≈ 398 µM) in experiment [11].

As for `CCOC(=O)c1cn(Cc2ccc(C)cc2)c2cc(F)c(F)cc2c1=O`, the MIC turned out to be 128 µg/mL (≈ 358 µM) in experiment [1]; 128 µg/mL (≈ 358 µM) in [2]; 2 µg/mL (≈ 5.6 µM) in experiment [3]; 256 µg/mL (≈ 716 µM) in experiment [4]; 64 µg/mL (≈ 179 µM) in [5]; 64 µg/mL (≈ 179 µM) in experiment [6]. In addition, the MIC in experiment [7] worked out at 256 µg/mL (≈ 716 µM); in experiment [8], 1 µg/mL (≈ 2.8 µM); in experiment [9], 128 µg/mL (≈ 358 µM); in experiment [10] it was 64 µg/mL (≈ 179 µM); in [11] it was 128 µg/mL (≈ 358 µM).

In the case of `CCOC(=O)c1cn(CC(N)=O)c2cc(F)c(F)cc2c1=O`, the MIC worked out at 256 µg/mL (≈ 825 µM) in experiment [1]; 64 µg/mL (≈ 206 µM) in experiment [2]; 16 µg/mL (≈ 51.6 µM) in [3]; 256 µg/mL (≈ 825 µM) in experiment [4]; 128 µg/mL (≈ 413 µM) in [5]; 256 µg/mL (≈ 825 µM) in experiment [6]. Moreover, the MIC was 64 µg/mL (≈ 206 µM) in experiment [7]; 8 µg/mL (≈ 25.8 µM) in [8]; 32 µg/mL (≈ 103 µM) in experiment [9]; 256 µg/mL (≈ 825 µM) in experiment [10]; 256 µg/mL (≈ 825 µM) in experiment [11].

Take `CCOC(=O)c1cn(C)c2cc(F)c(F)cc2c1=O`: the MIC is 64 µg/mL (≈ 239 µM) in experiment [1]; 64 µg/mL (≈ 239 µM) in [2]; 256 µg/mL (≈ 958 µM) in [3]; 256 µg/mL (≈ 958 µM) in [4]; 128 µg/mL (≈ 479 µM) in [5]; 256 µg/mL (≈ 958 µM) in experiment [6]. The MIC in experiment [7] amounted to 256 µg/mL (≈ 958 µM); in experiment [8], 16 µg/mL (≈ 59.9 µM); in experiment [9], 128 µg/mL (≈ 479 µM); in experiment [10], 128 µg/mL (≈ 479 µM); in [11] it was 128 µg/mL (≈ 479 µM).

On to `CCOC(=O)c1cn(Cc2cnc(Cl)s2)c2cc(F)c(F)cc2c1=O`, for which the MIC was 64 µg/mL (≈ 166 µM) in experiment [1]; 64 µg/mL (≈ 166 µM) in experiment [2]; 32 µg/mL (≈ 83.2 µM) in experiment [3]; 32 µg/mL (≈ 83.2 µM) in experiment [4]; 256 µg/mL (≈ 665 µM) in experiment [5]; 4 µg/mL (≈ 10.4 µM) in [6]. Also, the MIC was determined as 16 µg/mL (≈ 41.6 µM) in experiment [7]; 8 µg/mL (≈ 20.8 µM) in experiment [8]; 32 µg/mL (≈ 83.2 µM) in [9]; 32 µg/mL (≈ 83.2 µM) in experiment [10]; 32 µg/mL (≈ 83.2 µM) in [11].

As for `CCOC(=O)c1cn(CC)c2cc(C(C#N)C(=O)OCC)c(F)cc2c1=O` (stereo not given), the MIC in experiment [1] came out at 8 µg/mL (≈ 21.4 µM); in [2], 8 µg/mL (≈ 21.4 µM); in [3], 32 µg/mL (≈ 85.5 µM); in experiment [4] it was 256 µg/mL (≈ 684 µM); in experiment [5] it was 32 µg/mL (≈ 85.5 µM); in [6], 8 µg/mL (≈ 21.4 µM). For the same compound, the MIC in experiment [7] came out at 8 µg/mL (≈ 21.4 µM); in [8], 16 µg/mL (≈ 42.7 µM); in experiment [9], 16 µg/mL (≈ 42.7 µM); in [10], 32 µg/mL (≈ 85.5 µM); in experiment [11] it was 16 µg/mL (≈ 42.7 µM).

As for `CCOC(=O)C(C#N)c1cc2c(cc1F)c(=O)c(C(=O)O)cn2Cc1ccc(Cl)cc1Cl` (stereo not given), the MIC stood at 0.25 µg/mL (≈ 0.524 µM) in experiment [1]; 4 µg/mL (≈ 8.38 µM) in experiment [2]; 1 µg/mL (≈ 2.1 µM) in [3]; 2 µg/mL (≈ 4.19 µM) in [4]; 1 µg/mL (≈ 2.1 µM) in experiment [5]; 1 µg/mL (≈ 2.1 µM) in experiment [6]. Moreover, the minimum inhibitory concentration (MIC) stood at 2 µg/mL (≈ 4.19 µM) in [7]; 16 µg/mL (≈ 33.5 µM) in experiment [8]; 0.5 µg/mL (≈ 1.05 µM) in experiment [9]; 8 µg/mL (≈ 16.8 µM) in [10]; 2 µg/mL (≈ 4.19 µM) in [11].

As to `CCOC(=O)c1cn(C)c2cc([C-](C#N)C(=O)OCC)c(F)cc2c1=O.[Na+]` (stereo not given), the MIC is 32 µg/mL in [1]; 32 µg/mL in experiment [2]; 32 µg/mL in experiment [3]; 64 µg/mL in [4]; 128 µg/mL in experiment [5]; 1 µg/mL in experiment [6]. Besides, the MIC amounted to 32 µg/mL in [7]; 32 µg/mL in experiment [8]; 16 µg/mL in experiment [9]; 32 µg/mL in [10]; 64 µg/mL in [11].
